Source: patent US7829560B2, “1,4-disubstituted naphthalenes as inhibitors of P38 MAP kinase” (Arqule, Inc., priority 2004, dated 2010)
Where “and” joins values, the source holds several entries; their conditions need not be identical. Identical values can stand only once.

Tests used:
p38α = molecular target: T1, p38α (Homo sapiens, UniProt Q16539); test: p38 MAP Kinase assay: inhibition of ATF2 phosphorylation, ELISA; assay type: biochemical; conditions: for IC50: ATF2 phosphorylation, read-out: [ENZ] P38 ALPHA, IC50, ELISA; for inhibition at 10 µM: substrate ATF2, read-out: [ENZ] P38 ALPHA, PCT INH, ELISA (10 uM;ATF2) (Percent)
T1 construct: p38 MAP Kinases are recombinant human full-length proteins with an amino-terminal GST fusion; GST (N); purchased Upstate Biotechnology Inc; host or cells: E. coli
Outline: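 GST-tagged full-length human p38 MAP kinase with GST-ATF2 (aa 19–96; 1.25 μM) and 40 μM ATP in HEPES pH 7.5 buffer, without (Method I) or with (Method II) 1% human serum albumin. Compound pre-incubated 15 min at room temperature; reaction 30 min at 37 °C; ATF2 Thr69 phosphorylation measured by ELISA (A450).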

[1] = test system: TNFα release from THP-1 cells; test: Inhibition of TNFα release from LPS-stimulated THP-1 cells, ELISA; assay type: cell-based; conditions: Homo sapiens, THP-1, THP-1 cells, read-out: [CELL] THP-1, IC50, TNF ALPHA, ELISA
Outline: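 Human THP-1 monocytes, 10^6 cells/ml in RPMI with 10% FBS, no serum or 1% HSA, preincubated 30 min at 37 °C with compound (≤0.5% DMSO), then stimulated with 10 μg/ml LPS for 18 h. Supernatant TNFα measured by ELISA; IC50 from non-linear dose-response regression.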

T1 sequence (Q16539 whole entry, the tested form may be a part): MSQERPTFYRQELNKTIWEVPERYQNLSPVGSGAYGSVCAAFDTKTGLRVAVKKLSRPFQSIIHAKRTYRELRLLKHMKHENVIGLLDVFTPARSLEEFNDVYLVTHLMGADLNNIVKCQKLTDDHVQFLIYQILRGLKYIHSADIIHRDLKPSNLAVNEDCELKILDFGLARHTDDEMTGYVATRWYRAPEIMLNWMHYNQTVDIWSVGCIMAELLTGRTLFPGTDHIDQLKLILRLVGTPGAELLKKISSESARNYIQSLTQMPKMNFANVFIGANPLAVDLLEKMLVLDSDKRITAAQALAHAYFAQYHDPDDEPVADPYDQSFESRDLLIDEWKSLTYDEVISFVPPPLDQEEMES

| SMILES | IC50 (p38α) | IC50 [1] [nM] | melting point [°C] | inhibition at 10 µM (p38α) [%] |
| --- | --- | --- | --- | --- |
| O=C(Nc1ccc(Oc2ccnc(N3CCCCC3)n2)c2ccccc12)c1cc(F)cc(N2CCOCC2)c1 [Compound B324, 3-Fluoro-5-morpholin-4-yl-N-{4-[(2-piperidin-1-ylpyrimidin-4-yl)oxy]-1-naphthyl}benzamide] | 19 nM | > 1000 | 190 to 191 |  |
| COCCNc1nccc(Oc2ccc(NC(=O)c3cc(F)cc(N4CCCCC4)c3)c3ccccc23)n1 [Compound B374, 3-Fluoro-N-[4-({2-[(2-methoxyethyl)amino]pyrimidin-4-yl}oxy)-1-naphthyl]-5-piperidin-1-ylbenzamide] | 4.3 nM | 147 | 87 to 88 |  |
| CC(C)N(C)c1nccc(Oc2ccc(NC(=O)c3cc(F)cc(N4CCCCC4)c3)c3ccccc23)n1 [Compound B385, 3-Fluoro-N-[4-({2-[isopropyl(methyl)amino]pyrimidin-4-yl}oxy)-1-naphthyl]-5-piperidin-1-ylbenzamide] | 95.6 nM | > 1000 | 102 to 104 |  |
| CN1CCN(c2nccc(Oc3ccc(NC(=O)c4cc(F)cc(N5CCCCC5)c4)c4ccccc34)n2)CC1 [Compound B372, 3-Fluoro-N-(4-{[2-(4-methylpiperazin-1-yl)pyrimidin-4-yl]oxy}-1-naphthyl)-5-piperidin-1-ylbenzamide] | 8.4 nM | 217 | 182 to 184 |  |
| CC(C)(C)OC(=O)N1CCN(c2nccc(Oc3ccc(NC(=O)c4cc(F)cc(N5CCOCC5)c4)c4ccccc34)n2)CC1 [Compound B340, t-Butyl-4-[4-({4-[(3-fluoro-5-morpholin-4-ylbenzoyl)amino]-1-naphthyl}oxy)pyrimidin-2-yl]piperazine-1-carboxylate] | 55.9 nM | > 1000 | 131 to 133 |  |
| O=C(Nc1ccc(Oc2ccnc(NC3(CO)CCCC3)n2)c2ccccc12)c1cc(F)cc(N2CCOCC2)c1 [Compound B350, 3-Fluoro-N-{4-[(2-{[1-(hydroxymethyl)cyclopentyl]amino}pyrimidin-4-yl)oxy]-1-naphthyl}-5-morpholin-4-ylbenzamide] | 9.5 nM | 68.1 | 115 to 117 |  |
| CSc1nccc(Oc2ccc(NC(=O)c3cc(F)cc(OC4CCCCC4)c3)c3ccccc23)n1 [Compound B303, 3-(Cyclohexyloxy)-5-fluoro-N-(4-{[2-(methylthio)pyrimidin-4-yl]oxy}-1-naphthyl)benzamide] | 275 nM | 232 | 130 to 132 |  |
| C[C@@H]1CN(c2nccc(Oc3ccc(NC(=O)c4cc(F)cc(N5CCCCC5)c4)c4ccccc34)n2)C[C@H](C)O1 [Compound B416, N-[4-({2-[(2R,6S)-2,6-Dimethylmorpholin-4-yl]pyrimidin-4-yl}oxy)-1-naphthyl]-3-fluoro-5-piperidin-1-ylbenzamide] | 50.2 nM | 472 | 174 to 176 |  |
| COCCNc1nccc(Oc2ccc(NC(=O)c3cc(F)cc(N4CCOCC4)c3)c3ccccc23)n1 [Compound B319, 3-Fluoro-N-[4-({2-[(2-methoxyethyl)amino]pyrimidin-4-yl}oxy)-1-naphthyl]-5-morpholin-4-ylbenzamide] | 1 nM | 59.3 | 95 to 97 |  |
| O=C(Nc1ccc(Oc2ccnc(N3CCCC(O)C3)n2)c2ccccc12)c1cc(F)cc(N2CCCCC2)c1 (centres unmarked) [Compound B402, 3-Fluoro-N-(4-{[2-(3-hydroxypiperidin-1-yl)pyrimidin-4-yl]oxy}-1-naphthyl)-5-piperidin-1-ylbenzamide] | 14.6 nM | 655 | 93 to 95 |  |
| O=C(Nc1ccc(Oc2ccnc(NC3CC3)n2)c2ccccc12)c1cc(F)cc(N2CCCCC2)c1 [Compound B382, N-(4-{[2-(Cyclopropylamino)pyrimidin-4-yl]oxy}-1-naphthyl)-3-fluoro-5-piperidin-1-ylbenzamide] | 6.9 nM | 185 | 157 to 158 |  |
| O=C(Nc1ccc(Oc2ccnc(N3CCCC3)n2)c2ccccc12)c1cc(F)cc(N2CCOCC2)c1 [Compound B334, 3-Fluoro-5-morpholin-4-yl-N-{4-[(2-pyrrolidin-1-ylpyrimidin-4-yl)oxy]-1-naphthyl}benzamide] | 8.2 nM | 276 | 205 to 207 |  |
| CC1CCN(c2cc(F)cc(C(=O)Nc3ccc(OCCN4CCOCC4)c4ccccc34)c2)CC1 [Compound B184, 3-Fluoro-5-(4-methylpiperidin-1-yl)-N-[4-(2-morpholin-4-ylethoxy)-1-naphthyl]benzamide] | 1070 nM | 6990 | 116 to 118 |  |
| O=C(Nc1ccc(Oc2ccnc(NC3CC3)n2)c2ccccc12)c1cc(F)cc(N2CCOCC2)c1 [Compound B321, N-(4-{[2-(Cyclopropylamino)pyrimidin-4-yl]oxy}-1-naphthyl)-3-fluoro-5-morpholin-4-ylbenzamide] | 3.1 nM | 76.1 | 118 to 120 |  |
| CC1CCCN(c2cc(F)cc(C(=O)Nc3ccc(OCCN4CCOCC4)c4ccccc34)c2)C1 (centres unmarked) [Compound B202, 3-Fluoro-5-(3-methylpiperidin-1-yl)-N-[4-(2-morpholin-4-ylethoxy)-1-naphthyl]benzamide] | 291 nM | 9330 | 145 to 148 |  |
| O=C(Nc1ccc(OCCN2CCOCC2)c2ccccc12)c1cc(F)cc(OC2CCOCC2)c1 [Compound B226, 3-Fluoro-N-[4-(2-morpholin-4-ylethoxy)-1-naphthyl]-5-(tetrahydro-2H-pyran-4-yloxy)benzamide] | 5390 nM |  | 75 to 77 |  |
| O=C(Nc1ccc(OCc2ccncc2)c2ccccc12)c1cc(F)cc(N2CCOCC2)c1 [Compound B191, 3-Fluoro-5-morpholin-4-yl-N-[4-(pyridin-4-ylmethoxy)-1-naphthyl]benzamide] | 52.7 nM and 61 nM |  | 157 to 159 |  |
| CCC1CCC(Oc2cc(F)cc(C(=O)Nc3ccc(OCc4ccncc4)c4ccccc34)c2)CC1 (centres unmarked) [Compound B228, 3-[(4-Ethylcyclohexyl)oxy]-5-fluoro-N-[4-(pyridin-4-ylmethoxy)-1-naphthyl]benzamide] | > 10000 nM |  | 93 to 95 |  |
| O=C(Nc1ccc(Oc2ccnc(N3CCCC3)n2)c2ccccc12)c1cc(F)cc(N2CCCCC2)c1 [Compound B377, 3-Fluoro-piperidin-1-yl-N-{4-[(2-pyrrolidin-1-ylpyrimidin-4-yl)oxy]-1-naphthyl}benzamide] |  | 515 | 111 to 113 |  |
| O=C(Nc1ccc(OCCN2CCCC2=O)c2ccccc12)c1cc(F)cc(N2CCOCC2)c1 [Compound B224, 3-Fluoro-5-morpholin-4-yl-N-{4-[2-(2-oxopyrrolidin-1-yl)ethoxy]-1-naphthyl}benzamide] | 6550 nM |  | 172 to 173 |  |
| O=C(Nc1ccc(OCCCN2CCC3(CC2)OCCO3)c2ccccc12)c1cc(F)cc(N2CCCCC2)c1 [Compound B166, N-{4-[3-(1,4-Dioxa-8-aza-spiro[4.5]dec-8-yl)-propoxy]-naphthalen-1-yl}-3-fluoro-5-piperidin-1-yl-benzamide] | 4810 nM |  | 70 to 72 |  |
| O=C(Nc1ccc(OCCN2CCCC2=O)c2ccccc12)c1cc(F)cc(N2CCCCC2)c1 [Compound B181, 3-Fluoro-N-{4-[2-(2-oxopyrrolidin-1-yl)ethoxy]-1-naphthyl}-5-piperidin-1-ylbenzamide] | 2350 nM |  | 161 to 162 |  |
| O=C(Nc1ccc(OCc2ccoc2)c2ccccc12)c1cc(F)cc(N2CCCCC2)c1 [Compound B180, 3-Fluoro-N-[4-(3-furylmethoxy)-1-naphthyl]-5-piperidin-1-ylbenzamide] | 4040 nM |  | 152 to 153 |  |
| COc1ccccc1-c1cccc(C(=O)Nc2ccc(OCCN3CCOCC3)c3ccccc23)c1 [Compound B90] | 1330 nM | 5250 |  | 78 |
| COc1ccc(-c2cccc(C(=O)Nc3ccc(OCCN4CCOCC4)c4ccccc34)c2)cc1F [Compound B290] | > 10000 nM | > 10000 |  |  |
| Cc1cc(C(=O)Nc2ccc(OCCN3CCOCC3)c3ccccc23)cc(N2CCC(C)CC2)n1 [Compound B154, 4,6′-Dimethyl-3,4,5,6-tetrahydro-2H-[1,2′]bipyridinyl-4′-carboxylic acid [4-(2-morpholin-4-yl-ethoxy)-naphthalen-1-yl]-amide] | 2720 nM | 2530 |  | 71 |
| O=C(Nc1ccc(OCCN2CCOCC2)c2ccccc12)c1cccc(-c2ccc(F)c(Cl)c2)c1 [Compound B275] | 3980 nM | 3570 |  |  |
| CN(C)CC(C)(C)CNc1nccc(Oc2ccc(NC(=O)c3cc(F)cc(N4CCOCC4)c3)c3ccccc23)n1 [Compound B317, N-{4-[2-(3-Dimethylamino-2,2-dimethyl-propylamino)-pyrimidin-4-yloxy]-naphthalen-1-yl}-3-fluoro-5-morpholin-4-yl-benzamide] | 9.9 nM | 23.8 |  |  |
| O=C(Nc1ccc(OCCN2CCOCC2)c2ccccc12)c1cccc(CN2CCCCC2)c1 [Compound B55] | > 10000 nM | > 10000 |  |  |
| Cc1nc(C(=O)Nc2ccc(OCCN3CCOCC3)c3ccccc23)cc(N2CCOCC2)n1 [Compound B46] | > 10000 nM | 685 |  |  |
